Data on 1 compound can be found in the NIST ThermoML archive (doi:10.1016/j.jct.2017.04.003).

Each structure is given as a SMILES string. Numbers after ± are expanded uncertainties.

For the compound `[Na+].[Na+].[O-][O-]` [sodium peroxide], for the setting “Crystal 1, DTA”, the Normal melting temperature was 666.6 ± 10 °C. Also, the Triple point temperature (Crystal 2, DSC) came out at 756.8 ± 10 K.
